Source: patent EP4566596A1, “ANTI-HBV AGENT” (RIKEN, priority 2022, dated 2024)
“And” between values parts separate entries of the source, which are not always exact repeats. Equal entries are not always repeated. Where two headings read alike, the source gives them in different places.

How the values were obtained:
[1] = format: in vitro ADME, mouse
Experimental: (§1) Then, 50 µL of a NADPH regeneration system (85 mM D-glucose-6-phosphate, 10 mM β-nicotinamide adenine dinucleotide phosphate, oxidized form, and 10 U/mL glucose-6-phosphate dehydrogenase, all manufactured by Oriental Yeast Co., Ltd.) was added and mixed, and incubation was started. The incubation starting point was set to 0 minutes of reaction. At 0, 30, and 60 minutes of reaction, a 50-µL fraction of the reaction solution was collected into 200 µL of an ice-cooled 0.5 µM propranolol/acetonitrile solution, and the reaction was stopped. The obtained preparative solution was transferred to a protein removal plate (manufactured by Phenomenex), and after suction filtration through a manifold for 96-well plates, the filtrate was collected into a 96-well plate for collection. 100 µL of the collected filtrate was transferred to a 96-well plate and dried in a nitrogen-blowing high-speed parallel concentrator (Turbo Vap 96, manufactured by Biotage). After dissolving the dried sample with the initial mobile phase, the target compound was quantified by liquid chromatography-tandem mass spectrometry (LC-MS/MS). […] As technical replicates, the residual rate was calculated in two independent series for each compound to be evaluated for each animal species.
(§2) The configuration of LC-MS/MS is as follows: high-performance liquid chromatography: Nexera X2 UPLC system (manufactured by Shimadzu), column: ACQUITY UPLC BEH C18 Column, 130A, 1.7 µm, 2.1 ×× 50 mm (manufactured by Waters), guard column: ACQUITY UPLC BEH C18 VanGuard Column, 130A, 1.7 µm, 2.1 ×× 50 mm (manufactured by Waters), mobile phase A: 0.1% aqueous formic acid solution/acetonitrile (9:1, v/v), mobile phase B: 0.1% aqueous formic acid solution/acetonitrile (1:9, v/v), gradient conditions: 0 to 1 min; 30% B, 1 to 1.5 min; 30 to 100% B, 1.5 to 3.5 min; 100% B, and 3.5 to 5 min; 30% B, and mass spectrometer: QTRAP 4500 (manufactured by AB Sciex) were used, a measurement target compound was ionized using an ESI method, and target ions were measured by multiple reaction monitoring. […]

[2] = format: in vitro ADME, human
Experimental: as §1, §2

HBV DNA from Hep2.2.15.7 = test: Anti-HBV activity using hepatitis B virus-producing cultured cells (HBV DNA in culture medium, qPCR); format: cell-based; conditions: 144 h, Hep2.2.15.7 cells, HBV DNA in culture medium after 6 days
Experimental: Hep2.2.15.7 cells were spread in a 96-well plate (manufactured by TPP) at a density of 1 × 10^5 cells/well and cultured at 37°C and 5% CO2 using a culture medium containing DMEM/F12-GlutaMAX (manufactured by Thermo Fisher Scientific Inc.), 10% fetal bovine serum, 100 U/ml penicillin, 100 µg/ml streptomycin (manufactured by Thermo Fisher Scientific Inc.), and 5 µg/ml insulin (manufactured by Wako Pure Chemical). A test compound was added to the culture, and cells in three wells per condition were cultured. After 3 days, replacement with a medium containing the test compound was performed. After 6 days, cell viability was determined by quantitatively measuring intracellular mitochondrial activity. This was performed by measuring absorbance at 490 nm using Cell Proliferation Kit II (XTT) (manufactured by Roche) and a plate reader, EnSight (manufactured by PerkinElmer). At the same time, HBV-derived DNA was extracted and purified from the cell culture medium using Agencourt Genfind v2 (manufactured by Beckman-Coulter). […].

pgRNA in PXB cells = test: Anti-HBV activity using hepatitis B virus-infected primary cultured human hepatocytes (pgRNA, qPCR); format: cell-based; conditions: 7 days treatment; for effect of suppressing pgRNA: FIG. 3; for IC50: Hepatitis B virus, Hepatocyte, compound added after 28 days
[3] = Mouse blood drug concentrations after oral administration (LC-MS/MS); format: in vivo, mice (ICR strain); conditions: ICR mice, plasma; for half-life: mouse, read-out: Elimination half-life
Experimental: A compound was dissolved in a mixture of ethanol and polysorbate 80 (1:1) to make 10 mg/mL, and the resulting mixture was diluted with saline to 1 mg/mL and orally administered to mice (ICR strain, males, 6-10 weeks old) using a sonde. Blood was collected from the tail vein at 0.25, 0.5, 1, 2, 4, and 7 hours after administration, and plasma was obtained. An internal standard (ritonavir) was added to 10 µL of plasma, and a deproteinized sample was used for measurement. The measurement was performed according to a liquid chromatography-tandem mass spectrometry method using a Shimadzu LCMS-8050 system. The analytical conditions were as follows. A COSMOSIL 3C18-MS-II (2.0 ID × 50 mm; manufactured by Nacalai Tesque, Inc.) column was used. The column temperature was 40°C, and the autosampler temperature was 4°C. The mobile phase was a combination of Phase A: water/acetonitrile = 9/1 (v/v) and Phase B: acetonitrile, and the flow rate was 0.6 mL/min. 2 µL of the sample was injected. The gradient elution conditions were 0 to 0.9 min, 5% B; 0.9 to 2.1 min, 5 to 95% B; 2.1 to 5.5 min, 95% B; 5.5 to 5.51 min, 95 to 5% B; and 5.51 to 6.0 min, 5% B. The cleaning solution used was an isopropanol/methanol/acetonitrile/water = 1/1/1/1 (v/v/v/v, %) solution containing 0.1% formic acid. The ionization method was ESI, and the collected data was processed using LabSolutions software (Ver. 5.97 SP1, Shimadzu Corporation).

cccDNA = test: Effect of suppressing cccDNA in HBV-infected PXB cells (qPCR); format: cell-based, HBV genotype C; conditions: 7 days treatment, FIG. 3
Experimental: Fresh human hepatocytes derived from PXB mice (PXB cells; manufactured by PhoenixBio Co., Ltd.) were spread in a collagen-coated 96-well plate (manufactured by FALCON) at a density of 0.7 × 10^5 cells/well, and cultured for 7 days using a dHCGM medium (manufactured in house) at 37°C and 5% CO2. HBV genotype C (manufactured by PhoenixBio Co., Ltd.) was added to the culture medium together with 4% PEG 8000 at a final density of 3.5 × 10^5 copies/well, and the medium was replaced after 1 day, and every third or fourth day thereafter. A test compound was added after 28 days, and cells in three wells per condition were cultured. Then, replacement with a medium containing the test compound was also performed after 3 or 4 days, and after 7 days, DNA was extracted and purified from the cells using Agencourt DNAdvance (manufactured by Beckman-Coulter). […]

[4] = format: in vitro ADME, rat
Experimental: as §1, §2

HBc (1-149) = test: Capsid formation mechanism: gel filtration and electron microscopy of recombinant HBc (1-149); format: biochemical, HBV genotype C
Experimental: An expression plasmid in which the ubiquitin-like protein SUMO serving as a tag was fused to the sequence of the association domain (1-149) of HBc of genotype C was prepared and introduced into the Escherichia coli KRX strain, and a recombinant protein was expressed and purified. After the recombinant HBc (1-149) was cleaved with a SUMO protease to remove the tag, the dimer peak was separated by gel filtration and used for subsequent analyses. […]
This behavior is similar to that of the compound CBT-078. […] A fraction was collected from the elution peak at the position corresponding to the capsid, and a negatively stained image was captured using an electron microscope.

HBc T33N = HBc T33N (Hepatitis B virus genotype D subtype ayw, UniProt P03146, T33N); test: HBV replication assay in HeLa cells, HBc T33N mutant; format: cell-based
Chain of HBc T33N (P03146 whole entry T33N, looked up): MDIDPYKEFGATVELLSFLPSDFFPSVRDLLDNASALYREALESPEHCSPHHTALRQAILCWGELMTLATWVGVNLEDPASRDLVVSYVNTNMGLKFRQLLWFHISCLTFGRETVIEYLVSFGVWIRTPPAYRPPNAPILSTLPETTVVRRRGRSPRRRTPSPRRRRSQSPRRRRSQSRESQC

HBV genotype C = test: Anti-HBV activity in hepatitis B virus-infected human hepatocyte chimeric mice (serum HBV DNA); format: in vivo, Human hepatocyte-transplanted chimeric mice (PXB mice); conditions: 10 mg/kg orally twice daily for 21 days, FIG. 4
HBV = test: Effect of suppressing HBsAg, HBeAg and pgRNA in primary cultured human hepatocytes infected with HBV; format: cell-based; conditions: concentrations of 0.01 to 100 mM, FIG. 2
Experimental: Primary cultured human hepatocytes infected with HBV were treated with the compound CBT-289 or Entecavir (ETV) at concentrations of […], and the HBsAg and HBeAg levels in the medium and the pgRNAlevel in the cells were measured.

## Cc1ccccc1NC(=O)c1cccc(C(=O)Nc2ccc(F)cc2)c1F [CBT-078, reference compound]
[1]; Mouse liver microsomes, 0 min (baseline)
  residual rate: 100%
[1]; Mouse liver microsomes, 30 min
  residual rate: 6%
[1]; Mouse liver microsomes, 60 min
  residual rate: 0%
[2]; Human liver microsomes, 0 min (baseline)
  residual rate: 100%
[2]; Human liver microsomes, 30 min
  residual rate: 77%
[2]; Human liver microsomes, 60 min
  residual rate: 60% and 58%
HBV DNA from Hep2.2.15.7
  IC50: 270 nM
pgRNA in PXB cells
  effect of suppressing pgRNA: did not have the effect of suppressing pgRNA
[3]
  Maximum blood concentration: 710 ng/mL
  Time to reach maximum blood concentration: 30 min
[3]; in vivo
  half-life: 0.533 h
cccDNA
  effect of suppressing cccDNA: did not have the effect of suppressing pgRNA or cccDNA
[4]; Rat liver microsomes, 0 min (baseline)
  residual rate: 100%
[4]; Rat liver microsomes, 30 min
  residual rate: 53% and 52%
[4]; Rat liver microsomes, 60 min
  residual rate: 35% and 34%

## Cc1cc(C#N)ccc1NC(=O)c1cccc(C(=O)Nc2ccc(F)cc2)c1F [CBT-209]
HBc (1-149); 11 µM HBc (1-149), 15 µM compound, overnight incubation at 4°C, FIG. 5
  association state of HBc (1-149) by gel filtration: the elution peak shifted to the position corresponding to the capsid
HBc (1-149); 7 days of incubation, gel filtration and electron microscope
  stability of the capsids formed: stable even after 7 days of incubation
[1]; mouse, 0 min, 1 µM, pH 7.4
  residual rate: 100%
[2]; human, 0 min, 1 µM, pH 7.4
  residual rate: 100%
HBV DNA from Hep2.2.15.7
  IC50: 39 nM
HBc T33N
  antiviral activity against viruses with the HBc T33N mutation: have antiviral activity even against viruses with the HBc T33N mutation
[3]
  Maximum blood concentration: 250 ng/mL
  Time to reach maximum blood concentration: 120 min
[3]; male
  half-life: 13.8 h
HBV genotype C
  HBV DNA level in the serum: preferentially reduced compared with GLS4 or the vehicle
[4]; rat, 0 min, 1 µM, pH 7.4
  residual rate: 100%

## CCCCNC(=O)c1ccc(NC(=O)c2cccc(C(=O)Nc3ccc(F)cc3)c2F)c(C)c1 [CBT-289]
HBV DNA from Hep2.2.15.7
  IC50: 74 nM
pgRNA in PXB cells
  effect of suppressing pgRNA: suppressed cccDNA and pgRNA in a concentration-dependent manner
  IC50: 2480 nM
HBV
  HBeAg level in the medium: suppressed HBsAg, HBeAg, and pgRNAin a concentration-dependent manner
  HBsAg level in the medium: suppressed HBsAg, HBeAg, and pgRNAin a concentration-dependent manner
  pgRNA level in the cells: suppressed HBsAg, HBeAg, and pgRNAin a concentration-dependent manner
cccDNA
  effect of suppressing cccDNA: suppressed cccDNA and pgRNA in a concentration-dependent manner

## CCCNC(=O)c1ccc(NC(=O)c2cccc(C(=O)Nc3ccc(F)cc3)c2F)c(C)c1 [CBT-383]
HBV DNA from Hep2.2.15.7
  IC50: 910 nM
pgRNA in PXB cells
  IC50: 2330 nM

## CCNC(=O)c1ccc(NC(=O)c2cccc(C(=O)Nc3ccc(F)cc3)c2F)c(C)c1 [CBT-384]
HBV DNA from Hep2.2.15.7
  IC50: 75 nM
pgRNA in PXB cells
  IC50: 16500 nM

## Cc1cc(C(=O)NC(C)(C)C)ccc1NC(=O)c1cccc(C(=O)Nc2ccc(F)cc2)c1F [CBT-385]
HBV DNA from Hep2.2.15.7
  IC50: 180 nM
pgRNA in PXB cells
  IC50: > 100000 nM

## C=CCCNC(=O)c1ccc(NC(=O)c2cccc(C(=O)Nc3ccc(F)cc3)c2F)c(C)c1 [CBT-387]
HBV DNA from Hep2.2.15.7
  IC50: 41 nM
pgRNA in PXB cells
  IC50: 3410 nM

## CCCCCCNC(=O)c1ccc(NC(=O)c2cccc(C(=O)Nc3ccc(F)cc3)c2F)c(C)c1 [CBT-388]
HBV DNA from Hep2.2.15.7
  IC50: 180 nM
pgRNA in PXB cells
  IC50: 4590 nM

## CCCCCCCCCCNC(=O)c1ccc(NC(=O)c2cccc(C(=O)Nc3ccc(F)cc3)c2F)c(C)c1 [CBT-389]
HBV DNA from Hep2.2.15.7
  IC50: 470 nM
pgRNA in PXB cells
  IC50: 100000 nM

## Cc1cc(C(=O)NCCC(C)C)ccc1NC(=O)c1cccc(C(=O)Nc2ccc(F)cc2)c1F [CBT-390]
HBV DNA from Hep2.2.15.7
  IC50: 61 nM
pgRNA in PXB cells
  IC50: 730 nM

## CCC[C@@H](C)NC(=O)c1ccc(NC(=O)c2cccc(C(=O)Nc3ccc(F)cc3)c2F)c(C)c1 [CBT-391]
HBV DNA from Hep2.2.15.7
  IC50: 95 nM
pgRNA in PXB cells
  IC50: 2480 nM

## C=C1[C@H](CO)[C@@H](O)C[C@@H]1n1cnc2c(=O)[nH]c(N)nc21 [ETV, Entecavir, reference compound]
HBV
  HBeAg level in the medium: did not suppress them
  HBsAg level in the medium: did not suppress them
  pgRNA level in the cells: did not suppress them
